Laboratory results reported in patent publication US10219516B2, “Molecules having pesticidal utility, and intermediates, compositions, and processes, related thereto” (priority 2015, dated 2019).
Where two headings read alike, the source gives them in different places.

How the values were obtained:
[1] = system: Beet Armyworm (Spodoptera exigua, LAPHEG); assay: Bioassay on Beet Armyworm (BAW), 128-well diet tray assay; format: in vivo
Summary of the method: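 Percent mortality, averaged across eight replicate wells, was scored after five to seven days at 25° C. under a 14:10 light-dark cycle. Each well's diet carried 50 μg/cm^2 of the dried test molecule and held one to five second instar larvae.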

[2] = system: Cabbage Looper (Trichoplusia ni, TRIPNI); assay: Bioassay on Cabbage Looper (CL), 128-well diet tray assay; format: in vivo; settings: Trichoplusia ni
Summary of the method: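 Test molecule is dissolved in 90:10 acetone-water and applied at 50 μg/cm^2 onto artificial diet, then dried. One to five second-instar larvae go into each of eight wells. Trays, sealed but vented, stay at 25° C., 14:10 light-dark, five to seven days, after which mortality is averaged.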

[3] = Beet Armyworm, 128-well diet tray assay, read-out: BAW rating
[4] = Cabbage Looper, 128-well diet tray assay, read-out: CL rating
[5] = Species BAW (Beet Armyworm), read-out: BAW (Biological Results, rating)
[6] = Species CL (Cabbage Looper), read-out: CL (Biological Results, rating)

O=C(Nc1ccc(NC(=O)C2(C(F)(F)F)CC2)cc1)c1cc(NC(=O)[C@H]2[C@H](c3cc(Cl)cc(Cl)c3)C2(Cl)Cl)ccc1Cl (relative stereo) [PF162, trans-2-Chloro-5-(2,2-dichloro-3-(3,5-dichlorophenyl)cyclopropane-1-carboxamido)-N-(4-(1-(trifluoromethyl)cyclopropane-1-carboxamido)phenyl)benzamide]
pest or weed control at 50 µg/cm2 [1, 3]: 50 to 100% | pest or weed control at 50 µg/cm2 [2, 4]: 50 to 100%

CC(C)(C)CC(=O)Nc1ccc(NC(=O)c2cc(NC(=O)[C@H]3[C@H](c4cc(Cl)cc(Cl)c4)C3(Cl)Cl)ccc2Cl)cc1 (relative stereo) [PF164, trans-2-Chloro-5-(2,2-dichloro-3-(3,5-dichlorophenyl)cyclopropane-1-carboxamido)-N-(4-(3,3-dimethylbutanamido)phenyl)benzamide]
pest or weed control at 50 µg/cm2 [1, 3]: 50 to 100% | pest or weed control at 50 µg/cm2 [2, 4]: 50 to 100%

O=C(Nc1c(F)cccc1F)c1cc(NC(=O)C2C(c3cc(Cl)cc(Cl)c3)C2(Cl)Br)ccc1Cl (stereo not drawn) [F168, 5-(trans)-2-Bromo-2-chloro-3-(3,5-dichlorophenyl)cyclopropane-1-carboxamido)-2-chloro-N-(2,6-difluorophenyl)benzamide]
pest or weed control at 50 µg/cm2 [1, 5]: 50 to 100% | pest or weed control at 50 µg/cm2 [2, 6]: 50 to 100%

Cc1cc(NC(=O)OC(C)(C)C)ccc1NC(=O)c1cc(NC(=O)[C@H]2[C@H](c3cc(Cl)c(Cl)c(Cl)c3)C2(Cl)Cl)ccc1Cl [F278, tert-Butyl (4-(2-chloro-5-((1R,3R)-2,2-dichloro-3-(3,4,5-trichlorophenyl)cyclopropane-1-carboxamido)benzamido)-3-methylphenyl)carbamate]
pest or weed control at 50 µg/cm2 [1, 5]: 50 to 100% | pest or weed control at 50 µg/cm2 [2, 6]: 50 to 100%

O=C(Nc1cc(F)cc([N+](=O)[O-])c1)c1cc(NC(=O)[C@H]2[C@H](c3ccc(Cl)c(Cl)c3)C2(Cl)Cl)ccc1Cl [F416, 2-Chloro-5-((1R,3R)-2,2-dichloro-3-(3,4-dichlorophenyl)cyclopropane-1-carboxamido)-N-(3-fluoro-5-nitrophenyl)benzamide]
pest or weed control at 50 µg/cm2 [1, 3]: 50 to 100% | pest or weed control at 50 µg/cm2 [2, 4]: 50 to 100%

O=C(Nc1nc2cc(Cl)ccc2o1)c1cc(NC(=O)C2C(c3cc(Cl)cc(Cl)c3)C2(Cl)Cl)ccc1Cl (stereo not drawn) [F448, 2-Chloro-N-(5-chlorobenzo[d]oxazol-2-yl)-5-(trans)-2,2-dichloro-3-(3,5-dichlorophenyl)cyclopropane-1-carboxamido)benzamide]
pest or weed control at 50 µg/cm2 [1, 3]: 50 to 100% | pest or weed control at 50 µg/cm2 [2, 4]: 50 to 100%

O=C(Nc1nc2ccc(F)cc2[nH]1)c1cc(NC(=O)C2C(c3cc(Cl)cc(Cl)c3)C2(Cl)Cl)ccc1Cl (stereo not drawn) [F451, 2-Chloro-5-(trans)-2,2-dichloro-3-(3,5-dichlorophenyl)cyclopropane-1-carboxamido)-N-(6-fluoro-1H-benzo[d]imidazol-2-yl)benzamide]
pest or weed control at 50 µg/cm2 [1, 3]: 50 to 100% | pest or weed control at 50 µg/cm2 [2, 4]: 50 to 100%

Cc1cc(NS(C)(=O)=O)ccc1NC(=O)c1cc(NC(=O)C2C(c3cc(Cl)cc(Cl)c3)C2(Cl)Cl)ccc1Cl (stereo not drawn) [F487, 2-chloro-5-(trans)-2,2-dichloro-3-(3,5-dichlorophenyl)cyclopropane-1-carboxamido)-N-(2-methyl-4-(methylsulfonamido)phenyl)benzamide]
pest or weed control at 50 µg/cm2 [1, 3]: 50 to 100% | pest or weed control at 50 µg/cm2 [2, 4]: 50 to 100%

CC(C)(C)OC(=O)N(C(=O)OC(C)(C)C)c1c(F)ccc(NC(=O)c2cc(NC(=O)[C@H]3[C@H](c4ccc(Cl)c(Cl)c4)C3(Cl)Cl)ccc2Cl)c1F [F500, tert-Butyl-N-((tert-butoxy)carbonyl)-N-(3-(2-chloro-5-((1R,3R)-2,2-dichloro-3-(3,4-dichlorophenyl)cyclopropane-1-carboxamido)benzamido)-2,6-difluorophenyl)carbamate]
pest or weed control at 50 µg/cm2 [1, 3]: 50 to 100% | pest or weed control at 50 µg/cm2 [2, 4]: 0 to 50%

CC(C)(C)OC(=O)N(C(=O)OC(C)(C)C)c1c(F)ccc(NC(=O)c2cc(NC(=O)[C@H]3[C@H](c4ccc(F)c(Cl)c4)C3(Cl)Cl)ccc2Cl)c1F [F503, tert-Butyl-N-((tert-butoxy)carbonyl)-N-(3-(2-chloro-5-((1R,3R)-2,2-dichloro-3-(3-chloro-4-fluorophenyl)cyclopropane-1-carboxamido)benzamido)-2,6-difluorophenyl)carbamate]
pest or weed control at 50 µg/cm2 [1, 3]: 50 to 100% | pest or weed control at 50 µg/cm2 [2, 4]: 50 to 100%

CC(C)(C)OC(=O)N(C(=O)OC(C)(C)C)c1c(F)ccc(NC(=O)c2cc(NC(=O)C3C(c4ccc(Cl)c(Br)c4)C3(Cl)Cl)ccc2Cl)c1F (centres unmarked) [F513, tert-Butyl-N-((tert-butoxy)carbonyl)-N-(3-(5-(3-(3-bromo-4-chlorophenyl)-2,2-dichlorocyclopropane-1-carboxamido)-2-chlorobenzamido)-2,6-difluorophenyl)carbamate]
pest or weed control at 50 µg/cm2 [1, 3]: 50 to 100% | pest or weed control at 50 µg/cm2 [2, 4]: 50 to 100%

CC(C)(C)OC(=O)N(C(=O)OC(C)(C)C)c1cc(NC(=O)c2cc(NC(=O)[C@H]3[C@H](c4cc(Cl)cc(Cl)c4)C3(Cl)Cl)ccc2Cl)c(F)cc1F [F519, tert-Butyl-N-((tert-butoxy)carbonyl)-N-(5-(2-chloro-5-((1R,3R)-2,2-dichloro-3-(3,5-dichlorophenyl)cyclopropane-1-carboxamido)benzamido)-2,4-difluorophenyl)carbamate]
pest or weed control at 50 µg/cm2 [1, 3]: 50 to 100% | pest or weed control at 50 µg/cm2 [2, 4]: 50 to 100%

CC(C)(C)OC(=O)N(C(=O)OC(C)(C)C)c1cc(NC(=O)c2cc(NC(=O)[C@H]3[C@H](c4ccc(Cl)c(Cl)c4)C3(Cl)Cl)ccc2Cl)c(F)cc1F [F520, tert-Butyl-N-((tert-butoxy)carbonyl)-N-(5-(2-chloro-5-((1R,3R)-2,2-dichloro-3-(3,4-dichlorophenyl)cyclopropane-1-carboxamido)benzamido)-2,4-difluorophenyl)carbamate]
pest or weed control at 50 µg/cm2 [1, 3]: 50 to 100% | pest or weed control at 50 µg/cm2 [2, 4]: 50 to 100%

Nc1c(F)ccc(NC(=O)c2cc(NC(=O)C3C(c4cc(Cl)c(Cl)c(Br)c4)C3(Cl)Cl)ccc2Cl)c1F (stereo not drawn) [F621, N-(3-Amino-2,4-difluorophenyl)-5-(3-trans-(3-bromo-4,5-dichlorophenyl)-2,2-dichlorocyclopropane-1-carboxamido)-2-chlorobenzamide]
pest or weed control at 50 µg/cm2 [1, 3]: 50 to 100% | pest or weed control at 50 µg/cm2 [2, 4]: 50 to 100%

Nc1c(F)ccc(NC(=O)c2cc(NC(=O)C3C(c4cc(F)cc(Br)c4)C3(Cl)Cl)ccc2Cl)c1F (stereo not drawn) [F622, N-(3-Amino-2,4-difluorophenyl)-5-(3-trans-(3-bromo-5-fluorophenyl)-2,2-dichlorocyclopropane-1-carboxamido)-2-chlorobenzamide]
pest or weed control at 50 µg/cm2 [1, 3]: 50 to 100% | pest or weed control at 50 µg/cm2 [2, 4]: 50 to 100%

Nc1c(F)ccc(NC(=O)c2cc(NC(=O)C3C(c4cc(F)cc(C(F)(F)F)c4)C3(Cl)Cl)ccc2Cl)c1F (stereo not drawn) [F623, N-(3-Amino-2,4-difluorophenyl)-2-chloro-5-(2,2-dichloro-3-trans-(3-fluoro-5-(trifluoromethyl)phenyl)cyclopropane-1-carboxamido)benzamide]
pest or weed control at 50 µg/cm2 [1, 3]: 50 to 100% | pest or weed control at 50 µg/cm2 [2, 4]: 50 to 100%

Nc1c(F)ccc(NC(=O)c2cc(NC(=O)C3C(c4ccc(F)c(C(F)(F)F)c4)C3(Cl)Cl)ccc2Cl)c1F (stereo not drawn) [F624, N-(3-Amino-2,4-difluorophenyl)-2-chloro-5-(2,2-dichloro-3-trans-(4-fluoro-3-(trifluoromethyl)phenyl)cyclopropane-1-carboxamido)benzamide]
pest or weed control at 50 µg/cm2 [1, 3]: 50 to 100% | pest or weed control at 50 µg/cm2 [2, 4]: 50 to 100%

Nc1c(F)ccc(NC(=O)c2cc(NC(=O)C3C(c4ccc(F)c(Br)c4)C3(Cl)Cl)ccc2Cl)c1F (stereo not drawn) [F625, N-(3-Amino-2,4-difluorophenyl)-5-(3-trans-(3-bromo-4-fluorophenyl)-2,2-dichlorocyclopropane-1-carboxamido)-2-chlorobenzamide]
pest or weed control at 50 µg/cm2 [1, 3]: 50 to 100% | pest or weed control at 50 µg/cm2 [2, 4]: 50 to 100%

Nc1c(F)ccc(NC(=O)c2cc(NC(=O)C3C(c4c(F)c(F)c(F)c(F)c4F)C3(Cl)Cl)ccc2Cl)c1F (stereo not drawn) [F626, N-(3-Amino-2,4-difluorophenyl)-2-chloro-5-(2,2-dichloro-3-trans-(perfluorophenyl)cyclopropane-1-carboxamido)benzamide]
pest or weed control at 50 µg/cm2 [1, 3]: 50 to 100% | pest or weed control at 50 µg/cm2 [2, 4]: 50 to 100%

Nc1c(F)ccc(NC(=O)c2cc(NC(=O)C3C(c4cc(F)c(F)c(F)c4)C3(Cl)Cl)ccc2Cl)c1F (stereo not drawn) [F627, N-(3-Amino-2,4-difluorophenyl)-2-chloro-5-(2,2-dichloro-3-trans-(3,4,5-trifluorophenyl)cyclopropane-1-carboxamido)benzamide]
pest or weed control at 50 µg/cm2 [1, 3]: 50 to 100% | pest or weed control at 50 µg/cm2 [2, 4]: 50 to 100%

O=C(Nc1ccc(F)cc1)c1cc(NC(=O)C2C(c3cc(Cl)cc(Cl)c3)C2(Cl)Cl)ccc1Cl (stereo not drawn) [F629, 2-Chloro-5-(2,2-dichloro-3-cis-(3,5-dichlorophenyl)cyclopropane-1-carboxamido)-N-(4-fluorophenyl)benzamide]
pest or weed control at 50 µg/cm2 [1, 3]: 50 to 100% | pest or weed control at 50 µg/cm2 [2, 4]: 50 to 100%

O=C(Nc1ccc(F)cc1)c1cc(NC(=O)C2C(c3cc(Cl)cc(Cl)c3)C2(Cl)Br)ccc1Cl (stereo not drawn) [PF33, 5-(trans)-2-Bromo-2-chloro-3-(3,5-dichlorophenyl)cyclopropane-1-carboxamido)-2-chloro-N-(4-fluorophenyl)benzamide]
pest or weed control at 50 µg/cm2 [1, 3]: 50 to 100% | pest or weed control at 50 µg/cm2 [2, 4]: 50 to 100%
